# According to publication PMC9927415, “Tyrosine Kinase Inhibitors Display Potent Activity against Cryptosporidium parvum” (Microbiology Spectrum, 2022):
# Like-named read-outs stand apart in the source and are kept apart here.
# Key:
# Assay in all cases: KINOMEscan competitive binding
# AAK1 = biological target: T1, AAK1 (Homo sapiens, UniProt Q2M2I8); conditions: 10 µM, n=1; kinase AAK1; read-out: Percent inhibition AAK1
# T1 construct: purchased DiscoverX (KINOMEscan)
# Excerpt: (§1) The kinases were expressed as fusions to T7 bacteriophage. This is a sensitive, competitive binding assay where test compounds were used to displace immobilized ATP-site binding probe ligands from kinases of interest. The amount of kinase that remained bound to the immobilized probe ligands on the solid support was quantified. Percentage inhibition data were was plotted on kinome trees using the web-based tool KinMap (http://www.kinhub.org/kinmap) ([60]).
# AXL = biological target: T2, AXL (Homo sapiens, UniProt P30530); conditions: 10 µM, n=1; kinase AXL; read-out: Percent inhibition AXL
# T2 construct: purchased DiscoverX (KINOMEscan)
# T2 sequence (P30530 26-894): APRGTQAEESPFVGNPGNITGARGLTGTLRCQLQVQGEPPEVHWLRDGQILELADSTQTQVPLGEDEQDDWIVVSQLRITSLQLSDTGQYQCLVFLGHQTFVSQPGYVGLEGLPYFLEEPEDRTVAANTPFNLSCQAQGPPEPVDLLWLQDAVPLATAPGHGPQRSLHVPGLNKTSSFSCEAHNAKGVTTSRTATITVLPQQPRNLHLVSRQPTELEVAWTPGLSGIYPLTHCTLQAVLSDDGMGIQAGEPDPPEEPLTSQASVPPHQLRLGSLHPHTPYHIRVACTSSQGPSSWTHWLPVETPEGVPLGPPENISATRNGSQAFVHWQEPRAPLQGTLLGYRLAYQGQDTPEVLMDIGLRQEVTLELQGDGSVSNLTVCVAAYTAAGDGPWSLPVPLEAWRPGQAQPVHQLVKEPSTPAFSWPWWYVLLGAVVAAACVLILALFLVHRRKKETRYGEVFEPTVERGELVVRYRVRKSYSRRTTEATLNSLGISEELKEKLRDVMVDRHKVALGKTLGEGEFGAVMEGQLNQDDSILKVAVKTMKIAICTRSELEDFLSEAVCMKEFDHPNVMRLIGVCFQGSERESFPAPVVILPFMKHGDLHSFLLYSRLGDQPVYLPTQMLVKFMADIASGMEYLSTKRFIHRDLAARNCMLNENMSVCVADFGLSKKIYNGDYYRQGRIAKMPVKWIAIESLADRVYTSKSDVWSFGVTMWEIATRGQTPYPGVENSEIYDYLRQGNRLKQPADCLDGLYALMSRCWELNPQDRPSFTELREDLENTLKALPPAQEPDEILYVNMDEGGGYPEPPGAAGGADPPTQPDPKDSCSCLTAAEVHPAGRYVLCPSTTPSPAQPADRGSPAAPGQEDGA
# Excerpt: as §1
# Aurora kinase A = biological target: T3, Aurora kinase A (Homo sapiens, UniProt O14965)
# T3 construct: purchased DiscoverX (KINOMEscan)
# T3 sequence (O14965 1-403): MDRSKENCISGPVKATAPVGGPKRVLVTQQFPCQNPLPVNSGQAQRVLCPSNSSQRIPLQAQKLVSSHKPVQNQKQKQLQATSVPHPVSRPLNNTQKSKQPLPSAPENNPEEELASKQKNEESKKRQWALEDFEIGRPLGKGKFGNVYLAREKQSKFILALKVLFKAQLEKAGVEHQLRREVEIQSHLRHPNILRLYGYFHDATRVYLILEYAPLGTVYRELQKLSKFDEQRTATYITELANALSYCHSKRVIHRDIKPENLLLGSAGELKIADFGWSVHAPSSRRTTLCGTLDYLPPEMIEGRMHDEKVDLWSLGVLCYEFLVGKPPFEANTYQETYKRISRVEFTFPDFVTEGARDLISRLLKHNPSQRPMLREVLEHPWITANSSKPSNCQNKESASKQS
# Excerpt: as §1
# CLK1 = biological target: T4, CLK1 (Homo sapiens, UniProt P49759); conditions: 10 µM, n=1; kinase CLK1; read-out: Percent inhibition CLK1
# T4 construct: purchased DiscoverX (KINOMEscan)
# T4 sequence (P49759 whole entry): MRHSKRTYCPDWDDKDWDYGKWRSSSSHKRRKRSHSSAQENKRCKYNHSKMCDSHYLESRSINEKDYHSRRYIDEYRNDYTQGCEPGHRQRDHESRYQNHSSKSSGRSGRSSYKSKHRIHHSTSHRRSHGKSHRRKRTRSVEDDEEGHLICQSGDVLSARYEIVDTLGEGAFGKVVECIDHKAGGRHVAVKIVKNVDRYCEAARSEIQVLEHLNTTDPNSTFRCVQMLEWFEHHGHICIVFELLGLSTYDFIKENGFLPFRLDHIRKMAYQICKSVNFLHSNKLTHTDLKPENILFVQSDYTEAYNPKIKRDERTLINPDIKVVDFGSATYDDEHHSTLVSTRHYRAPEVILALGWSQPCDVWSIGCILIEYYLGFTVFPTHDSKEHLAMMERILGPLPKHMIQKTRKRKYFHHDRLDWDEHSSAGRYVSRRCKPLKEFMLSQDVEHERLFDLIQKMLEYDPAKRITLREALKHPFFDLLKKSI
# Excerpt: as §1
# JAK1(JH2) = biological target: T5, JAK1(JH2) (Homo sapiens, UniProt P23458); conditions: 10 µM, n=1; kinase JAK1(Kin.Dom.1); read-out: Percent inhibition JAK1(Kin.Dom.1)
# T5 construct: JAK1(JH2); purchased DiscoverX (KINOMEscan)
# T5 sequence (P23458 583-855 limits assumed): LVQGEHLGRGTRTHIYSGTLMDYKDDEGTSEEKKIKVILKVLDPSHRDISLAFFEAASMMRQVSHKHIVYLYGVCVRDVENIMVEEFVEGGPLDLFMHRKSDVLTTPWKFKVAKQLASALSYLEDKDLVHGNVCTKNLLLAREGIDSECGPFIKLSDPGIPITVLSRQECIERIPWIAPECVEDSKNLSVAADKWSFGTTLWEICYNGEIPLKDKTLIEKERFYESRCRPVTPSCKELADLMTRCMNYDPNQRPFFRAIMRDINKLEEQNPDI
# Excerpt: as §1
# KIT = biological target: T6, KIT (Homo sapiens, UniProt P10721); conditions: 10 µM, n=1; kinase KIT; read-out: Percent inhibition KIT
# T6 construct: purchased DiscoverX (KINOMEscan)
# T6 sequence (P10721 26-976): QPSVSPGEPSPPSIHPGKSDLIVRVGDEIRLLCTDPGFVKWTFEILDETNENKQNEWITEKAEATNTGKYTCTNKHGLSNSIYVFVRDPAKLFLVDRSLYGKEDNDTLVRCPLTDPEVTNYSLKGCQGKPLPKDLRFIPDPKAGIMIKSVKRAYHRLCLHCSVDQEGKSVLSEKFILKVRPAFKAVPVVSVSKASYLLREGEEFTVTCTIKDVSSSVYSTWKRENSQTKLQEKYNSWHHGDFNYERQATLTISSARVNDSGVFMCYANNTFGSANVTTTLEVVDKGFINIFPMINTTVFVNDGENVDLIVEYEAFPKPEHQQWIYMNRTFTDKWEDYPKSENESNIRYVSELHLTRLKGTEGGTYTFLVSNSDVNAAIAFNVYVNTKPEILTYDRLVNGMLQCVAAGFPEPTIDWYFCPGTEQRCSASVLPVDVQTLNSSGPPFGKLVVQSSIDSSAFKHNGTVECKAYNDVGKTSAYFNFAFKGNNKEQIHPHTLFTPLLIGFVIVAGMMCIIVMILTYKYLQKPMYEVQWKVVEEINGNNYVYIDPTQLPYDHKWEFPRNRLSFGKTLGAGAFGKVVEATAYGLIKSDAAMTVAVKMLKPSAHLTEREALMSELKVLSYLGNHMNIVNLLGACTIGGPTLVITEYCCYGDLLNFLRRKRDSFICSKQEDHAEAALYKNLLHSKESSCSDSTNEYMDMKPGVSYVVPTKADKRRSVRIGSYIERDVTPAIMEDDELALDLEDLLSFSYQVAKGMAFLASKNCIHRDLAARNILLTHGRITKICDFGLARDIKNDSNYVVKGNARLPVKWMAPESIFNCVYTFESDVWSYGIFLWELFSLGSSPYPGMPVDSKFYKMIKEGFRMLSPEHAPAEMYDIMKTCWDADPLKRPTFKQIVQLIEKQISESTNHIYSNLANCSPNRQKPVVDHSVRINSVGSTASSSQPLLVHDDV
# Excerpt: as §1
# MERTK = biological target: T7, MERTK (Homo sapiens, UniProt Q12866); conditions: 10 µM, n=1; kinase MERTK; read-out: Percent inhibition MERTK
# T7 construct: purchased DiscoverX (KINOMEscan)
# T7 sequence (Q12866 21-999): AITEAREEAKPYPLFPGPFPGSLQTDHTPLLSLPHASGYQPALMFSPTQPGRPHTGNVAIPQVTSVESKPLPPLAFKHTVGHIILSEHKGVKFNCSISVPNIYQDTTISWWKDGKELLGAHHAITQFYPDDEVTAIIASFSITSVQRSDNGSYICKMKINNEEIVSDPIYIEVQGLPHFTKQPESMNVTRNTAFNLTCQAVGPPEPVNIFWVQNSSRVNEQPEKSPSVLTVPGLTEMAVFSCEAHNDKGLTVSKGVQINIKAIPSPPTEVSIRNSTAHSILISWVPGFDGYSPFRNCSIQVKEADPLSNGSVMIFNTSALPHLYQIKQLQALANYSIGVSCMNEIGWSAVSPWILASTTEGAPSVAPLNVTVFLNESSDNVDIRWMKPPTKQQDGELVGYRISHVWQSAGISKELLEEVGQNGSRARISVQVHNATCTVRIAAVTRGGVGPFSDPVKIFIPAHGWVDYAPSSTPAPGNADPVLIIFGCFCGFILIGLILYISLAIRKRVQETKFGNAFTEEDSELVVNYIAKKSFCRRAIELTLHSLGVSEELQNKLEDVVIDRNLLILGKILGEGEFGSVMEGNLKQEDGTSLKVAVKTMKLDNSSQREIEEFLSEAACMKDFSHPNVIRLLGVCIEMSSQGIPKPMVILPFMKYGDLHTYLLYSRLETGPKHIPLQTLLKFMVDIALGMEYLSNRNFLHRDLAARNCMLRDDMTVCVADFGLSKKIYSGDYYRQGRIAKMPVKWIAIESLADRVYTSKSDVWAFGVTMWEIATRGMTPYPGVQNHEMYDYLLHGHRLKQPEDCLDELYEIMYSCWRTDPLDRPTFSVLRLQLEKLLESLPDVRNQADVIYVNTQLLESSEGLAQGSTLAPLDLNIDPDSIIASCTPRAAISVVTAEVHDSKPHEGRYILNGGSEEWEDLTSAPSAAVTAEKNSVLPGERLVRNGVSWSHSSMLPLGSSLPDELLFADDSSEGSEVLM
# Excerpt: as §1
# PDGFRβ = biological target: T8, PDGFRβ (Homo sapiens, UniProt P09619); conditions: KINOMEscan, 10 µM, n=1; read-out: Percent inhibition, PDGFRB
# T8 construct: purchased DiscoverX (KINOMEscan)
# T8 sequence (P09619 33-1106): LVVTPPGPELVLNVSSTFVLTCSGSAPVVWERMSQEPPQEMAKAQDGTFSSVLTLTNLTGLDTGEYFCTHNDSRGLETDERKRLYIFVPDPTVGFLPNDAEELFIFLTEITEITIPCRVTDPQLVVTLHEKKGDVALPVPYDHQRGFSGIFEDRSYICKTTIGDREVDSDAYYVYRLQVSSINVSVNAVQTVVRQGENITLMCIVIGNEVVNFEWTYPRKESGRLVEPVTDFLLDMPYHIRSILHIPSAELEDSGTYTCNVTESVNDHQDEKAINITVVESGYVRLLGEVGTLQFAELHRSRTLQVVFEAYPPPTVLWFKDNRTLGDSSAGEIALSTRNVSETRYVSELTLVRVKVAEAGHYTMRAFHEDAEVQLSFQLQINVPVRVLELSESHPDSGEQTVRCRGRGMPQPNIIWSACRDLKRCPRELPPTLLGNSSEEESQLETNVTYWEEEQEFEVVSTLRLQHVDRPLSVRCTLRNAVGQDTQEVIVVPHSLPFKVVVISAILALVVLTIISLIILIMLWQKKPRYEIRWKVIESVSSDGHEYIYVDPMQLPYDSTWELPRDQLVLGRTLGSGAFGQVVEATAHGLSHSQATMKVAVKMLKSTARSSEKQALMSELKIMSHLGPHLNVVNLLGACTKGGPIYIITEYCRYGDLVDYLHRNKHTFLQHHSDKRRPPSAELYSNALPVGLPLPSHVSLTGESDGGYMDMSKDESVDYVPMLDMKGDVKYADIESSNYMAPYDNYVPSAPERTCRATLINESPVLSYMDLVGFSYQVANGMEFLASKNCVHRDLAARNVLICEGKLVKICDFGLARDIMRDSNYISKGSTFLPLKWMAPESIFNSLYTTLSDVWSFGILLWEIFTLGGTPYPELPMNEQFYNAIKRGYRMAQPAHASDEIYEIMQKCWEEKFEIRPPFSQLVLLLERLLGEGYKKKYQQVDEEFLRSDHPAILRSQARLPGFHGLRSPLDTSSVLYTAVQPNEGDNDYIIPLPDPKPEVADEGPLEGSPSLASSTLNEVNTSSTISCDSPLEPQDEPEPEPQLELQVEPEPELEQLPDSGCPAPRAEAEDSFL
# Excerpt: as §1
# [1] = 10 μM, n = 1, read-out: percent inhibition Aurora kinase A
# [2] = 10 µM, n=1, kinase AURKA, read-out: Percent inhibition AURKA
# T1 sequence (Q2M2I8 whole entry): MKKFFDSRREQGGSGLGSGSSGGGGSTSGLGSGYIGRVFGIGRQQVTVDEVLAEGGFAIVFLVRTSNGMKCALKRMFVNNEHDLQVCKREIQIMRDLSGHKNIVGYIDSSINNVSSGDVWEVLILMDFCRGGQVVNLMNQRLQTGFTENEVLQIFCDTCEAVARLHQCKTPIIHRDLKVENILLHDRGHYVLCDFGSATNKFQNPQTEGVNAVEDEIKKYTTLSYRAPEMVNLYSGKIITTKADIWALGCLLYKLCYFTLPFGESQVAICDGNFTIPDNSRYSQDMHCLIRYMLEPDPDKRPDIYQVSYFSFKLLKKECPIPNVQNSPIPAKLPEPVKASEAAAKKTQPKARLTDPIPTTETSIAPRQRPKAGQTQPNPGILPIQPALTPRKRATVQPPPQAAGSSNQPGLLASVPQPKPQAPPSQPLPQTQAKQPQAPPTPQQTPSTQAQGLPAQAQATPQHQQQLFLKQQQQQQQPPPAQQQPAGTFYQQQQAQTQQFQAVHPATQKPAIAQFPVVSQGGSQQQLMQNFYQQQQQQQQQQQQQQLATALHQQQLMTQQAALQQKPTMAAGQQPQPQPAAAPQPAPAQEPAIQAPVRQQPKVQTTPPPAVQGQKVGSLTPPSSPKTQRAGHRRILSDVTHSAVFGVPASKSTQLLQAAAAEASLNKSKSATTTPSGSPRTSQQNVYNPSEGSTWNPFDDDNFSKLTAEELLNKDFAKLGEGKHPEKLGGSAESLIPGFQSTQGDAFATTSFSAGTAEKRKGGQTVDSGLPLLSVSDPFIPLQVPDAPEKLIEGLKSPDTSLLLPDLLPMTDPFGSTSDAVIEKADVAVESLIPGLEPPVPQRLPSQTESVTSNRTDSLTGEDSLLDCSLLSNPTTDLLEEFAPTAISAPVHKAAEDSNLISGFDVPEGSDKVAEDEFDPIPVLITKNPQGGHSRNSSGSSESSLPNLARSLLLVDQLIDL
SMILES,inhibition at 10 µM (AAK1) [%],inhibition at 10 µM (AXL) [%],inhibition at 10 µM (Aurora kinase A; [1]) [%],inhibition at 10 µM (Aurora kinase A; [2]) [%],inhibition at 10 µM (CLK1) [%],inhibition at 10 µM (JAK1(JH2)) [%],inhibition at 10 µM (KIT) [%],inhibition at 10 µM (MERTK) [%],inhibition at 10 µM (PDGFRβ) [%]
CN1CCN(c2ccc(Nc3nccc(-c4cnn5ncccc45)n3)cc2C#N)CC1 [Compound 1],99.9,100,> 90,96.7,99.9,100,100,98.7,100
COc1ccc(Nc2nccc(-c3cnn4ncccc34)n2)cc1 [Compound 2],99.7,77.8,> 90,91.1,99.8,95.5,100,65.9,100
Cc1ccc(O)cc1Nc1ccnc(Nc2cccc(C(N)=O)c2)n1 [Compound 3],0,0,–,91.3,0,0,100,0,100
Cc1ccc(O)cc1N(C)c1ccnc(Nc2cccc(S(N)(=O)=O)c2)n1 [Compound 4],0,0,–,79.6,0,0,100,77.6,100
Fc1cccc(COc2ccc(Nc3ncnc4c3CN(CCN3CCOCC3)CC4)cc2Cl)c1 [Compound 6],0,0,–,0,0,0,0,0,0
